Measured values as given in US20120136050A1, “USE OF A MELATONIN AGONIST FOR THE TREATMENT OF SLEEP DISORDERS INCLUDING PRIMARY INSOMNIA” (VANDA PHARMACEUTICALS INC., priority 2009, published 2012).
“Also recorded” adds a separate entry of the source.

Columns and labels:
[1] = Particle size by laser diffraction (Malvern Mastersizer); type: physicochemical
Protocol: Particle size will also affect the dose selected. At larger particle sizes, i.e., D50 is greater than about 100 m, e.g., about 100 m to about 200 m oral doses at the higher end, i.e., up to about 100 mg are effective, whereas at smaller particle sizes, i.e., D50 is less than about 100 m, e.g., about 20 m to about 50 m, lower doses, i.e., less than about 100 mg, are useful, e.g., about 10 mg to about 80 mg and about 20 mg to about 50 mg. (Particle size measurements supporting the above were made laser diffraction using a Malvern Mastersizer. The D50 (D10, D90, D100) value means that 50% (10%, 90%, 100%) of the particles by weight are of the indicated diameter or smaller.) In one embodiment of the invention, the above doses are administered in immediate release form, i.e., a non-controlled release formulation.

[2] = system: patients with chronic primary insomnia; assay: Phase III placebo-controlled 4-week trial in chronic primary insomnia (PSG); type: in vivo, human; conditions: for fell asleep faster than placebo group (PSG): first night of treatment, p<0.001
Protocol: A phase III, multi-center, placebo-controlled, 4-week trial evaluated 322 patients with chronic primary insomnia. Patients were randomized to receive either 20 mg or 50 mg of Compound A or placebo over the course of four weeks. The primary endpoint consisted of the evaluation of the immediate and short-term (average of Nights 1 and 8) ability of Compound A to improve sleep onset as measured by Latency to Persistent Sleep (LPS) through polysomnography (PSG). Secondary endpoints evaluated Compound A's ability to maintain improvements on sleep onset after long-term (average of Nights 22 and 29) use of the compound as well as measures of sleep duration (Total Sleep Time, TST) and sleep maintenance (Wake After Sleep Onset, WASO). Patients were eligible for the study if symptoms of insomnia were chronic and LPS was greater than 30 minutes.

[3] = system: elderly patients with primary insomnia; assay: 28-day Phase II study in elderly patients with primary insomnia; type: in vivo, human
Protocol: (§1) A 28-day Phase II study was also conducted to investigate the effects of Compound A in elderly patients with primary insomnia. […] While patients with the lowest melatonin levels ([…]) may have benefited from Compound A treatment more than placebo, the design of this study made it difficult to interpret the effects of Compound A on the sleep-wake cycle.

[4] = Plasma exposure after oral administration (Cmax, AUC); type: in vivo, human
[5] = system: healthy male and female subjects with induced transient insomnia; assay: Example 2: single oral dose study in induced transient insomnia (PSG); type: in vivo, human
Protocol: A multi-center, randomized, double-blind, placebo-controlled, parallel-group study was conducted to investigate the efficacy and safety of single oral doses of VEC-162 (20 mg, 50 mg, and 100 mg) and matching placebo in healthy male and female subjects with induced transient insomnia. Approximately four hundred subjects were randomized in approximately a 1:1:1:1 ratio to the treatment groups.
In general, a screening period began 14 to 35 days prior to the start of the evaluation period, which was Day 1. Prior to Day 1, subjects were asked to increase their sleep time to 9 hours per night. Drug, or placebo, was administered on Night 1, approximately 0.5 hour prior to lights off.
The primary efficacy variable was LPS. LPS is defined as the length of time elapsed between lights off and onset of persistent sleep. In this trial, persistent sleep is defined as the point at which 10 minutes of uninterrupted sleep has begun. Sleep was determined on the basis of polysomnography (PSG).
Wake After Sleep Onset (WASO): WASO is defined as the time spent awake between onset of sleep and Lights On during Night 1, determined by PSG.
Latency to Non-Awake (LNA): LNA is defined as the number of minutes to reach any stage of sleep.
Total Sleep Time (TST): TST is defined as the number of minutes spent asleep during the entire time in bed.

[6] = Solubility in solvents and water; type: physicochemical
healthy volunteers = assay: Previous Phase I single and multiple ascending dose studies, safety and tolerability; type: in vivo
Protocol: as §1
(§2) The oral doses selected were based on safety and efficacy data obtained from previous Compound A pre-clinical and clinical trials. […] Though not optimally designed to assess the chronobiotic potential of Compound A, clinical trial CN116-002 measured the effects Compound A on the circadian sleep-wake cycle. […] The doses selected for the study (10 mg, 20 mg, 50 mg, and 100 mg) were within the expected dose range for efficacy. The safety of the selected doses for this study is supported by previous clinical studies. […] The highest dose in the study, 100 mg, is well within the safety margin established in both Phase I single and multiple ascending dose trials and in a Phase II study.

[7] = system: circadian sleep-wake cycle; assay: Clinical trial CN116-002, effects on the circadian sleep-wake cycle; type: in vivo, human; conditions: 50 mg
Protocol: as §2

[8] = material used in Example 1 study
[9] = material used in Example 2 study, material used in sleep latency study
[10] = 20 mg, Nights 1 and 8 vs baseline, p<0.001 vs placebo
[11] = 20 mg, Nights 22 and 29 vs baseline, nss
[12] = 20 mg, Nights 22 and 29 vs baseline, p<0.001 vs placebo
[13] = 50 mg, Nights 1 and 8 vs baseline, p<0.001 vs placebo
[14] = 50 mg, Nights 22 and 29 vs baseline, nss
[15] = 50 mg single oral dose, p<0.001
[16] = single oral dose, conclusion from Examples 1 and 2

CCC(=O)NC[C@@H]1C[C@H]1c1cccc2c1CCO2 [Compound A, N-[[(1R,2R)-2-(2,3-dihydro-1-benzofuran-4-yl)cycloproply]methyl]propanamide]
particle size D10 [1, 8]: 10 µm
particle size D50 [1, 8]: 115 µm
particle size D90 [1, 8]: 316 µm
particle size D100 [1, 8]: 631 µm
particle size D10 [1, 9]: 5 µm
particle size D50 [1, 9]: 25 µm
particle size D90 [1, 9]: 72 µm
particle size D100 [1, 9]: 316 µm
tolerability and safety profile ([2]; 20 mg or 50 mg over four weeks): well-tolerated and exhibited a safety profile generally similar to placebo
mean WASO improved by ([2]; 20 mg, Nights 1 and 8 vs baseline, nss): 12.2 min
mean LPS improved by [2, 10]: 45.0 min
mean TST during the first third of the night improved by [2, 10]: 40.9 min
mean WASO during the first third of the night improved by ([2]; 20 mg, Nights 1 and 8 vs baseline, p<0.01 vs placebo): 2.3 min
mean TST improved by ([2]; 20 mg, Nights 1 and 8 vs baseline, p=0.089 vs placebo): 51.4 min
mean WASO during the first third of the night improved by [2, 11]: 3.1 min
mean WASO improved by [2, 11]: 17.7 min
mean LPS improved by [2, 12]: 49.4 min
mean TST during the first third of the night improved by [2, 12]: 45.2 min
mean TST improved by ([2]; 20 mg, Nights 22 and 29 vs baseline, p=0.057 vs placebo): 60.3 min
fell asleep faster than placebo group (PSG) ([2]; 20 mg): 22.9 min
mean WASO improved by ([2]; 50 mg, Nights 1 and 8 vs baseline, nss): 14.1 min
mean LPS improved by [2, 13]: 46.4 min
mean TST during the first third of the night improved by [2, 13]: 39.4 min
mean WASO during the first third of the night improved by ([2]; 50 mg, Nights 1 and 8 vs baseline, p<0.05 vs placebo): 1.8 min
mean TST improved by ([2]; 50 mg, Nights 1 and 8 vs baseline, p=0.074 vs placebo): 52.0 min
mean WASO during the first third of the night improved by [2, 14]: 1.8 min
mean WASO improved by [2, 14]: 10.2 min
mean TST improved by ([2]; 50 mg, Nights 22 and 29 vs baseline, nss vs placebo): 48.6 min
mean TST during the first third of the night improved by ([2]; 50 mg, Nights 22 and 29 vs baseline, p<0.01 vs placebo): 40.1 min
mean LPS improved by ([2]; 50 mg, Nights 22 and 29 vs baseline, p=0.016 vs placebo): 45.1 min
fell asleep faster than placebo group (PSG) ([2]; 50 mg): 25.9 min
number of nocturnal awakenings versus placebo [3]: did not differentiate from placebo
sleep latency versus placebo [3]: did not differentiate from placebo
effect of covariates on exposure levels ([4]; age, weight, height, gender, creatinine clearance, or ALT baseline levels): not affected
AUC increase with dose ([4]; oral doses 10 to 100 mg): approximately proportional to dose
Cmax increase with dose ([4]; oral doses 10 to 100 mg): approximately proportional to the dose
Latency to Persistent Sleep (LPS): Improvement compared with placebo ([5]; 20 mg single oral dose, p<0.001): 21.5 min
Total Sleep Time (TST): Improvement compared with placebo ([5]; 20 mg single oral dose, p<0.002): 33.7 min
Latency to Non-Awake (LNA): Improvement compared with placebo ([5]; 20 mg single oral dose, p<0.006): 11.1 min
Wake After Sleep Onset (WASO): Improvement compared with placebo ([5]; 20 mg single oral dose, p<0.02): 24.2 min
Latency to Non-Awake (LNA): Improvement compared with placebo [5, 15]: 14.3 min
Latency to Persistent Sleep (LPS): Improvement compared with placebo [5, 15]: 26.3 min
Total Sleep Time (TST): Improvement compared with placebo [5, 15]: 47.9 min
Wake After Sleep Onset (WASO): Improvement compared with placebo ([5]; 50 mg single oral dose, p=0.001): 33.7 min
Latency to Persistent Sleep (LPS): Improvement compared with placebo ([5]; 100 mg single oral dose, p<0.001): 22.8 min
Latency to Non-Awake (LNA): Improvement compared with placebo ([5]; 100 mg single oral dose, p<0.002): 12.3 min
Total Sleep Time (TST): Improvement compared with placebo ([5]; 100 mg single oral dose, p<0.005): 29.6 min
Wake After Sleep Onset (WASO): Improvement compared with placebo ([5]; 100 mg single oral dose, p=0.081): 17.5 min
tolerability ([5]; all doses (20 mg, 50 mg, 100 mg)): well-tolerated
efficacy of 20 mg relative to 100 mg [5, 16]: comparable or superior to 100 mg
efficacy of 50 mg relative to 100 mg [5, 16]: more efficacious than 100 mg
dependence of aqueous solubility on pH [6]: practically unaffected by pH
solubility in organic solvents ([6]; 95% ethanol, methanol, acetonitrile, ethyl acetate, isopropanol, polyethylene glycols (PEG-300 and PEG-400)): very soluble or freely soluble
native pH of a saturated solution in water ([6]; saturated solution in water): 8.5
solubility in water ([6]; water): only slightly soluble
safety and tolerability, multiple doses (healthy volunteers; doses up to 150 mg daily for 28 days, healthy subjects (b53 also elderly subjects with chronic insomnia)): well-tolerated; also recorded: safety and tolerability of Compound A at doses up to 150 mg has been demonstrated
safety and tolerability, single dose (healthy volunteers; healthy subjects, single oral dose of 1 mg to 300 mg): safe and well tolerated
effect on circadian rhythms [7]: consistently shifted circadian rhythms
